From US11021721B2, “Genetically engineered Pseudomonas strains capable of metabolizing ethylene glycol and its metabolic intermediates” (Alliance for Sustainable Energy, LLC, priority 2017, dated 2021)
Where “and” joins values, the source holds several entries; their conditions need not be identical. Equal values may be shown once.

What was measured:
P. putida KT2440 [1] = test: C-limited chemostat cultivation on acetate with co-feed of ethylene glycol or glyoxylate; format: cell-based, Pseudomonas putida KT2440; conditions: for increase of biomass yield on acetate: 30 mM co-feed with 30 mM acetate, compared to control with only acetate; for reducing equivalents generated through co-metabolism: co-feed with acetate, assuming all glyoxylate is metabolized through the glyoxylate shunt
Method: FIG. 14 depicts co-feeding of P. putida KT2440 in C-limited chemostat cultivations on mineral medium with 30 mM acetate supplemented with 30 mM ethylene glycol (black), 30 mM glyoxylate (green), or no co-feed (grey). FIG. 14A depicts a comparison of biomass (OD600) at steady state. FIG. 14B depicts extracellular metabolites at steady state. […] FIG. 14C depicts flux analysis of redox equivalent-yielding metabolism of ethylene glycol (upper value) or glyoxylate (lower value) in mM gCDW^−1 h^−1. Cells were grown at a dilution rate of 0.2. Error bars indicate the deviation from the mean (n=2).
To investigate the applicability of ethylene glycol as a co-substrate, P. putida KT2440 was cultured in carbon-limited chemostat cultivations with acetate as carbon source, and either ethylene glycol or glyoxylate as an energy source. Acetate was chosen because it induces the glyoxylate shunt enzymes.
Energy and redox equivalent homeostasis is essential for efficient growth of a bacterial cell.

P. putida KT2440 [2] = test: Toxicity tests in Bioscreen C: growth in M9 minimal medium with 20 mM glucose and inhibitor; format: cell-based, Pseudomonas putida KT2440; conditions: 20 mM glucose
Method: Toxicity tests and competitive inhibition assays were performed using Bioscreen C MBR analyzers (Growth Curves US, Piscataway, N.J.). For toxicity tests, overnight cultures of P. putida KT2440 were grown in M9 medium containing 20 mM glucose starting at an OD600 of 0.05-0.1 at 30° C. with shaking at 225 rpm in baffled shake flasks until the OD600 reached about 1.0-1.5. Cells were subsequently concentrated by centrifugation and inoculated into wells of Bioscreen C microplates at an initial OD600=0.05. Each well contained a total volume of 300 M9 medium, 20 mM glucose, and inhibitors at various concentrations. Incubations were performed at 30° C. with maximum shaking. Absorbance readings were taken every 15 min. […] Initial OD600 was set at 0.1 by using an overnight culture of wild type P. putida KT2440. Samples were incubated as described above. Operation of the Bioscreen C MBR and collection of turbidity measurements (OD420-580) were computer automated with EZ Experiment.
Growth curves were obtained from Bioscreen C analyzers (Growth Curves US, Piscataway, N.J.). Overnight cultures of P. putida KT2440 were grown in M9 medium containing 20 mM glucose starting at an OD600 of 0.05-0.1, 30° C., 225 rpm (baffled shake flask) until the OD600 reached ˜1.0-1.5. Cells were concentrated by centrifugation and inoculated into wells of Bioscreen C microplates containing various inhibitors and concentrations in the presence of 20 mM glucose at and additional OD600=0.05 in a total volume of 300 μL. Incubations were performed at 30° C. and absorbance readings were taken every 15 min. Operation of the Bioscreen C and collection of turbidity measurements (OD420-580) were computer automated with EZ Experiment. Data was collected and exported to Microsoft Excel spreadsheets for analysis.

P. putida KT2440 [3] = test: Competitive inhibition assay, glycolaldehyde and glyoxal full-factorial growth test (Bioscreen C); format: cell-based, Pseudomonas putida KT2440
Method: FIG. 13 depicts synergistic inhibitory effect of glycolaldehyde and glyoxal. Growth assays were conducted in 100 well plates in the Bioscreen C MBR analyzer. Individual wells of the plate were filled with 200 μL of M9 medium-containing 20 mM glucose and the respective concentration of glycolaldehyde and glyoxal according to a 3-level full-factorial design (Table 3), growth rates expressed as means±SEM (n=3). Bars labeled with different letters indicate statistical significance of different runs (p<0.05; one-way ANOVA followed by Tukey's post hoc honest significance difference test).
Toxicity tests and competitive inhibition assays were performed using Bioscreen C MBR analyzers (Growth Curves US, Piscataway, N.J.). For toxicity tests, overnight cultures of P. putida KT2440 were grown in M9 medium containing 20 mM glucose starting at an OD600 of 0.05-0.1 at 30° C. with shaking at 225 rpm in baffled shake flasks until the OD600 reached about 1.0-1.5. Cells were subsequently concentrated by centrifugation and inoculated into wells of Bioscreen C microplates at an initial OD600=0.05. Each well contained a total volume of […] M9 medium, 20 mM glucose, and inhibitors at various concentrations. Incubations were performed at 30° C. with maximum shaking. Absorbance readings were taken every 15 min. For competitive inhibition assays, individual wells of the plate were filled with 200 μL of M9 medium containing 20 mM glucose and a respective concentration of glycolaldehyde and glyoxal according to full-factorial test run results of which are presented in Table 3 and depicted in graphical form in FIG. 13. Initial OD600 was set at 0.1 by using an overnight culture of wild type P. putida KT2440. Samples were incubated as described above. Operation of the Bioscreen C MBR and collection of turbidity measurements (OD420-580) were computer automated with EZ Experiment.
The toxicity effects of ethylene glycol, glyoxylate, glycolaldehyde, glyoxal and oxalate on P. putida KT2440 were examined by monitoring growth in the Bioscreen C instrument (a microplate reader which monitors turbidity over time) in the presence of M9 minimal medium containing 20 mM glucose and the inhibitor, see FIG. 20. The average OD of at least 5 wells was plotted in FIG. 9. […] Glyoxal, an oxidation product of glycolaldehyde, is also very inhibitory to P. putida KT2440 growth at a 5 mM concentration where a long lag phase is observed. At 7.5 mM, glyoxal is lethal to the cells. Therefore, glycolaldehyde and glyoxal are intermediate metabolites which result in ethylene glycol toxicity on P. putida KT2440. Glycolaldehyde exerts combinational inhibitory effect with other compounds, such as 5-HMF, furfural, and methylglyoxal. The combinational inhibitory effect of glycolaldehyde and glyoxal was determined by running three level full-factorial growth experiments, see FIG. 13 and Table 3.

P. putida KT2440 [4] = conditions: on glucose, co-feed of formate, similar conditions; cited from earlier work
[5] = biological target: tartronate semialdehyde reductase (GlxR); conditions: cited from earlier work

OCCO [Ethylene glycol, ethylene glycol]
increase of biomass yield on acetate (P. putida KT2440 [1]): 29.6±1.1%
reducing equivalents generated through co-metabolism (P. putida KT2440 [1]): 27.3±2.6 mmol (g CDW)^−1 h^−1

O=CCO [Glycolaldehyde, glycolaldehyde]
concentration that completely inhibited growth (P. putida KT2440 [2]): 4000 µM
concentration that inhibits growth (P. putida KT2440 [2]): 3000 µM
Growth Rate (P. putida KT2440 [3]; in the presence of 2 mM glycolaldehyde): 0.22 h⁻¹ and 0.291 ± 0.001 h⁻¹
Growth Rate (P. putida KT2440 [3]; run 13: glycolaldehyde 1.0 mM, glyoxal 0 mM): 0.281 h⁻¹
Growth Rate (P. putida KT2440 [3]; run 14: glycolaldehyde 1.5 mM, glyoxal 0 mM): 0.221 h⁻¹
Growth Rate (P. putida KT2440 [3]; run 15: glycolaldehyde 2 mM, glyoxal 0 mM): 0.218 h⁻¹

O=CC=O [Glyoxal, glyoxal]
concentration inhibitory to growth with long lag phase (P. putida KT2440 [2]): 5000 µM
lethal concentration (P. putida KT2440 [2]): 7.5 mM
Growth Rate (P. putida KT2440 [3]; in the presence of 2 mM glyoxal): 0.25 h⁻¹ and 0.297 ± 0.001 h⁻¹
Growth Rate (P. putida KT2440 [3]; run 1: glycolaldehyde 0 mM, glyoxal 1.0 mM): 0.297 h⁻¹
Growth Rate (P. putida KT2440 [3]; run 2: glycolaldehyde 0 mM, glyoxal 1.5 mM): 0.280 h⁻¹
Growth Rate (P. putida KT2440 [3]; run 3: glycolaldehyde 0 mM, glyoxal 2.0 mM): 0.246 h⁻¹

O=CO [formate]
reducing equivalents at maximal achievable biomass yield (P. putida KT2440 [4]): 7.6±0.9 mmol (g CDW)^−1 h^−1

O=C(O)CO [glycolate]
Ki ([5]; inhibition of GlxR): 3000 µM

O=CC(=O)O [glyoxylate]
increase of biomass yield on acetate (P. putida KT2440 [1]): 22.2±8.2%
reducing equivalents generated through co-metabolism (P. putida KT2440 [1]): 14.4±0.5 mmol (g CDW)^−1 h^−1

O=C(O)C(=O)CO [hydroxypyruvate]
maximal velocity as GlxR substrate, fold lower than tartronate semialdehyde [5]: 10 fold

O=C([O-])C(=O)[O-].[Na+].[Na+] [sodium oxalate]
concentration not significantly inhibitory to growth (P. putida KT2440 [2]): up to 50 mM
